Data published in patent publication US10770169B2, “Method of providing a treatment to a subject based on a dynamic pathway map” (THE REGENTS OF THE UNIVERSITY OF CALIFORNIA, priority 2010, dated 2020).

Test system: panel of 55 breast cancer cell lines
Assay: Cell growth inhibition assay (Cell Titer Glo, 72 h, 9 doses; GI50, TGI, LC50)
Type: cell-based, human

Oc1cc(-c2nc(-c3ccccc3)[nH]c2-c2ccncc2)ccc1Cl [L-779450]
GI50 (BT474 cell line, censored GI50 values, value is the negative log10 of mol/L): 4.73
GI50 (BT483 cell line, censored GI50 values, value is the negative log10 of mol/L): 4.84
GI50 (HCC38 cell line, censored GI50 values, value is the negative log10 of mol/L): 4.77
GI50 (HCC1187 cell line, censored GI50 values, value is the negative log10 of mol/L): 5.07
GI50 (HCC1395 cell line, censored GI50 values, value is the negative log10 of mol/L): 4.54
GI50 (HCC1419 cell line, censored GI50 values, value is the negative log10 of mol/L): 4.78
GI50 (HCC1428 cell line, censored GI50 values, value is the negative log10 of mol/L): 4.80
GI50 (HCC1937 cell line, censored GI50 values, value is the negative log10 of mol/L): 4.84
GI50 (MDAMB134VI cell line, censored GI50 values, value is the negative log10 of mol/L): 4.60
GI50 (MDAMB175VII cell line, censored GI50 values, value is the negative log10 of mol/L): 5.05
GI50 (MDAMB361 cell line, censored GI50 values, value is the negative log10 of mol/L): 5.04
GI50 (MDAMB436 cell line, censored GI50 values, value is the negative log10 of mol/L): 5.66
GI50 (MDAMB468 cell line, censored GI50 values, value is the negative log10 of mol/L): 4.90
GI50 (SKBR3 cell line, censored GI50 values, value is the negative log10 of mol/L): 4.66
GI50 (SUM52PE cell line, censored GI50 values, value is the negative log10 of mol/L): 5.13
GI50 (SUM149PT cell line, censored GI50 values, value is the negative log10 of mol/L): 5.13
GI50 (SUM159PT cell line, censored GI50 values, value is the negative log10 of mol/L): 4.70
GI50 (UACC812 cell line, censored GI50 values, value is the negative log10 of mol/L): 4.97
GI50 (ZR75B cell line, censored GI50 values, value is the negative log10 of mol/L): 4.51
GI50 (cell line AU565, value is the negative log10 of mol/L): 4.48
GI50 (cell line BT20, value is the negative log10 of mol/L): 4.44
GI50 (cell line BT474, value is the negative log10 of mol/L): 4.73
GI50 (cell line BT483, value is the negative log10 of mol/L): 4.84
GI50 (cell line CAMA1, value is the negative log10 of mol/L): 4.44
GI50 (cell line HCC38, value is the negative log10 of mol/L): 4.77
GI50 (cell line HCC70, value is the negative log10 of mol/L): 4.50
GI50 (cell line HCC1143, value is the negative log10 of mol/L): 4.39
GI50 (cell line HCC1187, value is the negative log10 of mol/L): 5.07
GI50 (cell line HCC1395, value is the negative log10 of mol/L): 4.54
GI50 (cell line HCC1419, value is the negative log10 of mol/L): 4.78
GI50 (cell line HCC1428, value is the negative log10 of mol/L): 4.80
GI50 (cell line HCC1500, value is the negative log10 of mol/L): 4.48
GI50 (cell line HCC1937, value is the negative log10 of mol/L): 4.84
GI50 (cell line HCC1954, value is the negative log10 of mol/L): 4.48
GI50 (cell line HCC2185, value is the negative log10 of mol/L): 4.42
GI50 (cell line HCC3153, value is the negative log10 of mol/L): 4.48
GI50 (cell line MCF7, value is the negative log10 of mol/L): 4.48
GI50 (cell line MDAMB134V, value is the negative log10 of mol/L): 4.60
GI50 (cell line MDAMB175V, value is the negative log10 of mol/L): 5.05
GI50 (cell line MDAMB231, value is the negative log10 of mol/L): 4.49
GI50 (cell line MDAMB361, value is the negative log10 of mol/L): 5.04
GI50 (cell line MDAMB436, value is the negative log10 of mol/L): 5.66
GI50 (cell line MDAMB453, value is the negative log10 of mol/L): 4.48
GI50 (cell line MDAMB468, value is the negative log10 of mol/L): 4.90
GI50 (cell line SKBR3, value is the negative log10 of mol/L): 4.66
GI50 (cell line SUM52PE, value is the negative log10 of mol/L): 5.13
GI50 (cell line SUM149PT, value is the negative log10 of mol/L): 5.13
GI50 (cell line SUM159PT, value is the negative log10 of mol/L): 4.70
GI50 (cell line SUM1315MO, value is the negative log10 of mol/L): 4.62
GI50 (cell line T47D, value is the negative log10 of mol/L): 4.48
GI50 (cell line UACC812, value is the negative log10 of mol/L): 4.97
GI50 (cell line ZR75B, value is the negative log10 of mol/L): 4.51
GI50 (cell line ZR751, value is the negative log10 of mol/L): 4.53

C[C@]12O[C@H](C[C@]1(O)CO)n1c3ccccc3c3c4c(c5c6ccccc6n2c5c31)CNC4=O [Lestaurtinib]
GI50 (Homo sapiens, 600MPE cell line, censored GI50 values): 1700 nM
GI50 (Homo sapiens, AU565, AU565 cell line, censored GI50 values): 851 nM
GI50 (Homo sapiens, AU565, cell line AU565): 851 nM
GI50 (Homo sapiens, BT-20, BT20 cell line, censored GI50 values): 3240 nM
GI50 (Homo sapiens, BT-20, cell line BT20): 3240 nM
GI50 (Homo sapiens, BT-474, BT474 cell line, censored GI50 values): 245 nM
GI50 (Homo sapiens, BT-474, cell line BT474): 245 nM
GI50 (Homo sapiens, BT-483, BT483 cell line, censored GI50 values): 741 nM
GI50 (Homo sapiens, BT-483, cell line BT483): 741 nM
GI50 (Homo sapiens, CAMA-1, CAMA1 cell line, censored GI50 values): 2240 nM
GI50 (Homo sapiens, CAMA-1, cell line CAMA1): 2240 nM
GI50 (Homo sapiens, HCC38, cell line HCC38): 61.7 nM
GI50 (Homo sapiens, HCC70, cell line HCC70): 182 nM
GI50 (Homo sapiens, HCC1143, HCC1143 cell line, censored GI50 values): 331 nM
GI50 (Homo sapiens, HCC1143, cell line HCC1143): 331 nM
GI50 (Homo sapiens, HCC1187, HCC1187 cell line, censored GI50 values): 832 nM
GI50 (Homo sapiens, HCC1187, cell line HCC1187): 832 nM
GI50 (Homo sapiens, HCC1419, HCC1419 cell line, censored GI50 values): 1150 nM
GI50 (Homo sapiens, HCC1419, cell line HCC1419): 1150 nM
GI50 (Homo sapiens, HCC1428, HCC1428 cell line, censored GI50 values): 537 nM
GI50 (Homo sapiens, HCC1428, cell line HCC1428): 537 nM
GI50 (Homo sapiens, HCC1500, HCC1500 cell line, censored GI50 values): 158 nM
GI50 (Homo sapiens, HCC1500, cell line HCC1500): 158 nM
GI50 (Homo sapiens, HCC1806, HCC1806 cell line, censored GI50 values): 162 nM
GI50 (Homo sapiens, HCC1806, cell line HCC1806): 162 nM
GI50 (Homo sapiens, HCC1937, HCC1937 cell line, censored GI50 values): 617 nM
GI50 (Homo sapiens, HCC1937, cell line HCC1937): 617 nM
GI50 (Homo sapiens, HCC1954, HCC1954 cell line, censored GI50 values): 4900 nM
GI50 (Homo sapiens, HCC1954, cell line HCC1954): 4900 nM
GI50 (Homo sapiens, MCF7, cell line MCF7): 1410 nM
GI50 (Homo sapiens, MDA-MB-361, cell line MDAMB361): 525 nM
GI50 (Homo sapiens, MDA-MB-436, cell line MDAMB436): 1380 nM
GI50 (Homo sapiens, MDA-MB-453, cell line MDAMB453): 661 nM
GI50 (Homo sapiens, MDA-MB-468, cell line MDAMB468): 407 nM
GI50 (Homo sapiens, SK-BR-3, cell line SKBR3): 1020 nM
GI50 (Homo sapiens, SUM52PE, cell line SUM52PE): 138 nM
GI50 (Homo sapiens, SUM149PT, cell line SUM149PT): 91.2 nM
GI50 (Homo sapiens, SUM185PE, cell line SUM185PE): 63.1 nM
GI50 (Homo sapiens, SUM225CWN, cell line SUM225CWN): 1000 nM
GI50 (Homo sapiens, SUM-159-PT, cell line SUM159PT): 288 nM
GI50 (Homo sapiens, T47D, cell line T47D): 5620 nM
GI50 (Homo sapiens, UACC-812, cell line UACC812): 1050 nM
GI50 (Homo sapiens, ZR-75-1, cell line ZR751): 1780 nM
GI50 (Homo sapiens, ZR-75B, cell line ZR75B): 457 nM
GI50 (Homo sapiens, cell line 600MPE): 1700 nM
GI50 (Homo sapiens, cell line HCC2185): 3240 nM
GI50 (Homo sapiens, cell line HCC3153): 7760 nM
GI50 (Homo sapiens, cell line MDAMB134V): 363 nM
GI50 (Homo sapiens, cell line MDAMB175V): 813 nM
GI50 (Homo sapiens, cell line SUM1315MO): 37.2 nM
